This passage reports MIC results from ChEMBL document CHEMBL1142033, “Synthesis of isonicotinic acid N'-arylidene-N-[2-oxo-2-(4-aryl-piperazin-1-yl)-ethyl]-hydrazides as antituberculosis agents” (2005).

Molecules are shown by their SMILES. ≈ marks a conversion by molar mass, not a printed value. Where only a bound is given, the exact number is not on record here.

Holding throughout (format): functional
Assay [1] has as its system Mycobacterium tuberculosis. Description: Minimum inhibitory concentration against resistant Mycobacterium tuberculosis clinical isolates; N=9.
The test system of assay [2] is Mycobacterium tuberculosis. Description: Minimum inhibitory concentration against resistant Mycobacterium tuberculosis clinical isolates; N=9; Range 2-4.
Assay [3] concerns Mycobacterium tuberculosis. Description: Minimum inhibitory concentration against resistant Mycobacterium tuberculosis clinical isolates; N=9; range=4-8.
Assay [4] concerns Mycobacterium tuberculosis. Description: Minimum inhibitory concentration against resistant Mycobacterium tuberculosis clinical isolates; N=9; range=8-16.
The test system of assay [5] is Mycobacterium tuberculosis. Description: Minimum inhibitory concentration against resistant Mycobacterium tuberculosis clinical isolates; N=9; Range=8-16.
Assay [6] concerns Mycobacterium tuberculosis. Description: Minimum inhibitory concentration against resistant Mycobacterium tuberculosis clinical isolates; N=9; Range=2-16.

The MIC is the smallest concentration in the dilution series that meets the test's criterion for growth inhibition. Higher therefore signals a less susceptible organism. `O=C(CN(/N=C/c1ccccc1Cl)C(=O)c1ccncc1)N1CCN(c2ccc(F)cc2)CC1` came in with an MIC in assay [1] above 16 µg/mL.
As for `O=C(CN(/N=C/c1cccc(Cl)c1)C(=O)c1ccncc1)N1CCN(c2ccc([N+](=O)[O-])cc2)CC1`, the MIC in assay [1] is above 16 µg/mL.
`O=C(CN(/N=C/c1ccc(Cl)cc1Cl)C(=O)c1ccncc1)N1CCN(c2ccc(Cl)cc2)CC1`: the MIC in assay [1] was 16 µg/mL (≈ 30.1 µM).
Still for that read-out and setting: then `O=C(CN(/N=C/c1ccc(Cl)cc1Cl)C(=O)c1ccncc1)N1CCN(c2ccc(F)cc2)CC1`, with above 16 µg/mL.
On to `O=C(CN(/N=C/c1cccc(Cl)c1)C(=O)c1ccncc1)N1CCN(c2ccc(Cl)cc2)CC1`, for which the MIC in assay [1] is above 16 µg/mL.
As to `COc1ccccc1N1CCN(C(=O)CN(/N=C/c2ccc(Cl)cc2)C(=O)c2ccncc2)CC1`, the MIC in assay [1] is above 16 µg/mL.
In assay [1], `COc1ccccc1N1CCN(C(=O)CN(/N=C/c2ccccc2Cl)C(=O)c2ccncc2)CC1` had an MIC above 16 µg/mL.
Consider `O=C(CN(/N=C/c1ccc(Cl)cc1)C(=O)c1ccncc1)N1CCN(c2ccc(Cl)cc2)CC1`, for which the MIC in assay [1] was above 16 µg/mL.
`O=C(CN(/N=C/c1ccc(Cl)cc1Cl)C(=O)c1ccncc1)N1CCN(c2cccc(C(F)(F)F)c2)CC1` gave an MIC in assay [1] above 16 µg/mL.
The same measure, in the same setting: with `O=C(CN(/N=C/c1ccccc1Cl)C(=O)c1ccncc1)N1CCN(c2ccccc2)CC1` the figure was above 16 µg/mL; with `O=C(CN(/N=C/c1ccccc1Cl)C(=O)c1ccncc1)N1CCN(c2ccc([N+](=O)[O-])cc2)CC1`, above 16 µg/mL; with `Cc1cccc(N2CCN(C(=O)CN(/N=C/c3ccc(Cl)cc3Cl)C(=O)c3ccncc3)CC2)c1`, above 16 µg/mL.
Consider `O=C(CN(/N=C/c1ccccc1Cl)C(=O)c1ccncc1)N1CCN(c2cccc(Cl)c2)CC1`, for which the MIC in assay [1] is above 16 µg/mL.
Still for that read-out and setting: with `Cc1cccc(N2CCN(C(=O)CN(/N=C/c3ccccc3Cl)C(=O)c3ccncc3)CC2)c1` the figure was above 16 µg/mL.
`O=C(CN(/N=C/c1ccc(Cl)cc1)C(=O)c1ccncc1)N1CCN(c2ccc(F)cc2)CC1`: the MIC in assay [1] is above 16 µg/mL.
The same measure, in the same setting: with `COc1ccccc1N1CCN(C(=O)CN(/N=C/c2cccc(Cl)c2)C(=O)c2ccncc2)CC1` the figure was above 16 µg/mL.
In assay [1], `O=C(CN(/N=C/c1ccccc1Cl)C(=O)c1ccncc1)N1CCN(c2cccc(C(F)(F)F)c2)CC1` registered an MIC above 16 µg/mL.
Consider `O=C(CN(/N=C/c1ccc(Cl)cc1Cl)C(=O)c1ccncc1)N1CCN(c2cccc(Cl)c2)CC1`, for which the MIC in assay [1] was above 16 µg/mL.
`O=C(CN(/N=C/c1cccc(Cl)c1)C(=O)c1ccncc1)N1CCN(c2ccc(F)cc2)CC1` yielded an MIC in assay [1] above 16 µg/mL.
On to `O=C(CN(/N=C/c1cccc(Cl)c1)C(=O)c1ccncc1)N1CCN(c2cccc(Cl)c2)CC1`, for which the MIC in assay [1] was above 16 µg/mL.
For the compound `O=C(CN(/N=C/c1ccc(Cl)cc1)C(=O)c1ccncc1)N1CCN(c2ccc([N+](=O)[O-])cc2)CC1`, the MIC in assay [1] was above 16 µg/mL.
For `COc1ccccc1N1CCN(C(=O)CN(/N=C/c2ccc(Cl)cc2Cl)C(=O)c2ccncc2)CC1`, the MIC in assay [1] was above 16 µg/mL.
`O=C(CN(/N=C/c1ccccc1Cl)C(=O)c1ccncc1)N1CCN(c2ccc(Cl)cc2)CC1` gave an MIC in assay [1] above 16 µg/mL.
Consider `O=C(CN(/N=C/c1ccc(Cl)cc1Cl)C(=O)c1ccncc1)N1CCN(Cc2ccc3c(c2)OCO3)CC1`, for which the minimal inhibitory concentration (MIC) in assay [2] worked out at 4 µg/mL (≈ 7.21 µM).
The compound `O=C(CN(/N=C/c1ccc(Cl)cc1Cl)C(=O)c1ccncc1)N1CCN(c2ccc([N+](=O)[O-])cc2)CC1` came in with an MIC in assay [1] above 16 µg/mL.
`O=C(CN(/N=C/c1cccc(Cl)c1)C(=O)c1ccncc1)N1CCN(Cc2ccc3c(c2)OCO3)CC1` had a minimum inhibitory concentration (MIC) in assay [3] of 8 µg/mL (≈ 15.4 µM).
Regarding `O=C(CN(/N=C/c1ccc(Cl)cc1Cl)C(=O)c1ccncc1)N1CCN(c2ccccc2)CC1`, the minimal inhibitory concentration (MIC) in assay [1] was above 16 µg/mL.
In assay [4], `O=C(CN(/N=C/c1ccccc1Cl)C(=O)c1ccncc1)N1CCN(Cc2ccc3c(c2)OCO3)CC1` displayed an MIC of 16 µg/mL (≈ 30.8 µM).
On to `Cc1cccc(N2CCN(C(=O)CN(/N=C/c3cccc(Cl)c3)C(=O)c3ccncc3)CC2)c1`, for which the MIC in assay [1] is above 16 µg/mL.
`O=C(CN(/N=C/c1ccc(Cl)cc1)C(=O)c1ccncc1)N1CCN(Cc2ccc3c(c2)OCO3)CC1`: the MIC in assay [3] stood at 8 µg/mL (≈ 15.4 µM).
As to `O=C(CN(/N=C/c1ccccc1Cl)C(=O)c1ccncc1)N1CCN(c2cccc(Cl)c2Cl)CC1`, the MIC in assay [1] is above 16 µg/mL.
The same measure, in the same setting: with `O=C(CN(/N=C/c1cccc(Cl)c1)C(=O)c1ccncc1)N1CCN(c2ccccc2)CC1` the figure was above 16 µg/mL.
As to `NNC(=O)c1ccncc1` [ISONIAZID], the MIC in assay [5] came to 16 µg/mL (≈ 117 µM).
For the compound `CO[C@H]1/C=C/O[C@@]2(C)Oc3c(C)c(O)c4c(O)c(c(/C=N/N5CCN(C)CC5)c(O)c4c3C2=O)NC(=O)/C(C)=C\C=C\[C@H](C)[C@H](O)[C@@H](C)[C@@H](O)[C@@H](C)[C@H](OC(C)=O)[C@@H]1C` [RIFAMPIN], the MIC in assay [6] is 16 µg/mL (≈ 19.4 µM).
